In general, inhibition refers to the drop in the measured response relative to a control, in per cent. One may read the IC50 as the concentration at which inhibition is half-maximal. A word on the MIC: it is the smallest concentration in the dilution series that meets the test's criterion for growth inhibition.

Test [1] is described as follows: Growth inhibition of the bacterial panel at 50 μM. In kind it is cell-based. Particulars: read-out: growth inhibition of bacteria (all tested strains, Table 1S).
The next test deals with E. coli topoisomerase IV (Escherichia coli, UniProt P20083). Description: E. coli topoisomerase IV inhibition assay. Particulars: for IC50: IC50 E. coli topo IV; for remaining activity at 1 µM: read-out: RA (residual activity) E. coli topo IV.
E. coli topoisomerase IV, sequence (P20083 whole entry): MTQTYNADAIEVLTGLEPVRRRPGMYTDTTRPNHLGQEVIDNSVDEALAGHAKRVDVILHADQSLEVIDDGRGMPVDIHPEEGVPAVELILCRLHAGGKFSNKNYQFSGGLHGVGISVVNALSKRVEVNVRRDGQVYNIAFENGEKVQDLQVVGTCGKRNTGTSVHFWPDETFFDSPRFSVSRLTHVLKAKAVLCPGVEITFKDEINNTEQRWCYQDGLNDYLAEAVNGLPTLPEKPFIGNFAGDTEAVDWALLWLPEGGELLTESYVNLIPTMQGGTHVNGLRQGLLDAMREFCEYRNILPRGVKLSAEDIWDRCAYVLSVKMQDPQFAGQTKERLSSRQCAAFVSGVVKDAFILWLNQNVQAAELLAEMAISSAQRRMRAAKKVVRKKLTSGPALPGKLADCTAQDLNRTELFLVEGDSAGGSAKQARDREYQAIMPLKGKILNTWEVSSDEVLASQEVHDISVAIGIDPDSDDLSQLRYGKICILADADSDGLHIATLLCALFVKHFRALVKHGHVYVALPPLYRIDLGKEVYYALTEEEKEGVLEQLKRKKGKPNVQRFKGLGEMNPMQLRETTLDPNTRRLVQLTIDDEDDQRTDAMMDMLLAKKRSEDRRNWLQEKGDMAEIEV
E. coli topoisomerase IV, sequence (P0AFI2 whole entry partner): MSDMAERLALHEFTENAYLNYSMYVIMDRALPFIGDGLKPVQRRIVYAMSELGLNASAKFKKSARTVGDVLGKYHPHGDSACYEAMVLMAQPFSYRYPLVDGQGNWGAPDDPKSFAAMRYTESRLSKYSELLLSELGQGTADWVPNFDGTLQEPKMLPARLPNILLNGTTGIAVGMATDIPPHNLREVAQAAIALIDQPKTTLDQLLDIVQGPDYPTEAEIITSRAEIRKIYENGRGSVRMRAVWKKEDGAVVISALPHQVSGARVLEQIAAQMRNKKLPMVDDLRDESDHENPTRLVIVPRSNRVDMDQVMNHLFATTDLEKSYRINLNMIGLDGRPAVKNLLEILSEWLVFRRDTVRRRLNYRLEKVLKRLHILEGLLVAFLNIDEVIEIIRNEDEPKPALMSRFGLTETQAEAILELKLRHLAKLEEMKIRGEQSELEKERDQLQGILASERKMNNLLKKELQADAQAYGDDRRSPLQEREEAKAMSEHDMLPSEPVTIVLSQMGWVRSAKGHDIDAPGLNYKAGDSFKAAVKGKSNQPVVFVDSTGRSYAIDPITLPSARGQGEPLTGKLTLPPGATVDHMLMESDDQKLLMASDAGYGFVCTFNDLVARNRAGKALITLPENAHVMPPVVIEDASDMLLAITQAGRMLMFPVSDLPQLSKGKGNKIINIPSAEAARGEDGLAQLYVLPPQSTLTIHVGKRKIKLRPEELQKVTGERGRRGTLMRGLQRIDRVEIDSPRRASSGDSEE
A further test relates to E. faecalis ATCC 29212. Description: Antibacterial activity. The format is cell-based, Enterococcus faecalis. The settings on record: for inhibition at 50 µM: Enterococcus faecalis, ATCC29212, read-out: growth inhibition of E. faecalis.
A further test deals with S. aureus ATCC 25923. Description: Antibacterial activity. In kind it is cell-based. Particulars: Staphylococcus aureus, ATCC25923, read-out: growth inhibition of S. aureus.
Another test concerns E. coli (MG1655). Description: MIC broth micro-dilution. The format is cell-based, Escherichia coli. (Broth dilution looks for growth in wells or tubes with falling amounts of substance.)
A further test concerns E. coli (BW 25113). Description: MIC broth micro-dilution. In kind it is cell-based, Escherichia coli.
The subject of the next test is E. coli (ATCC 25922). Description: MIC broth micro-dilution. In kind it is cell-based, Escherichia coli.
Another test addresses E. coli DNA gyrase (Escherichia coli, UniProt P0AES6). Description: E. coli DNA gyrase supercoiling assay.
For the next test, the system named is HUVEC cells. Particulars: read-out: IC50 HUVEC; literature value; cited from earlier work.
The test system of another test is HepG2 cells. Particulars: read-out: IC50 HepG2; literature value; cited from earlier work.
A further test concerns E. coli JW5503 ΔtolC. Description: Antibacterial activity. The settings on record: inhibitor concentration 50 μM. The format is cell-based, Escherichia coli.

For `NCCOc1cc(C(=O)NCC(=O)O)ccc1NC(=O)c1cc(Br)c(Br)[nH]1` [Compound 9c], in test [1], the inhibition at 50 µM was less than 36%. Turning to `Cc1[nH]c(C(=O)Nc2ccc(C(=O)N[C@@H](C)C(=O)O)cc2OCCN)c(Cl)c1Cl` [Compound 9e], the IC50 against E. coli topoisomerase IV is less than 1 µM. In [1], the inhibition at 50 µM is less than 36%. In the case of `COC(=O)[C@H](Cc1ccccc1)NC(=O)c1ccc(NC(=O)c2cc(Br)c(Br)[nH]2)c(OCCN)c1` [Compound 9a, (S)-2-(2-(4,5-Dibromo-1H-pyrrole-2-carboxamido)-5-((1-methoxy-1-oxo-3-phenylpropan-2-yl)carbamoyl)phenoxy)ethan-1-aminium chloride], the inhibition at 50 µM with E. faecalis ATCC 29212 and with S. aureus ATCC 25923 was greater than 80% in each case. Regarding `Cc1[nH]c(C(=O)Nc2ccc(C(=O)N[C@H](C)C(=O)O)cc2OC(C)C)c(Cl)c1Cl` [Compound 8f], the inhibition at 50 µM in the test on E. faecalis ATCC 29212 is greater than 80%.

As for `Cc1[nH]c(C(=O)Nc2ccc(C(=O)N[C@@H](C)c3n[nH]c(=O)o3)cc2OC(C)C)c(Cl)c1Cl` [Compound 11a, (S)-3,4-Dichloro-N-(2-isopropoxy-4-((1-(5-oxo-4,5-dihydro-1,3,4-oxadiazol-2-yl)ethyl)carbamoyl)phenyl)-5-methyl-1H-pyrrole-2-carboxamide], the minimum inhibitory concentration (MIC) in the test on E. coli (MG1655) (Escherichia coli, MG1655, read-out: MIC E. coli (MG1655)) was greater than 50 µM; in the test on E. coli (BW 25113) (Escherichia coli, read-out: MIC E. coli (BW 25113)), greater than 50 µM; with E. coli (ATCC 25922) (Escherichia coli, ATCC25922, read-out: MIC E. coli (ATCC 25922)), greater than 50 µM. In addition, the “MIC E. coli (MG1655)” value with E. coli (MG1655) (without PAβN) is “no bioactivity”. The inhibition at 50 µM with E. faecalis ATCC 29212 and with S. aureus ATCC 25923 was greater than 80% in each case. In addition, the “MIC E. coli (BW 25113)” value with E. coli (BW 25113) (without PAβN) was “no bioactivity”. For the same compound, in the test with E. coli (ATCC 25922) (without PAβN), the “MIC E. coli (ATCC 25922)” value is “no bioactivity”. Consider `Cc1[nH]c(C(=O)Nc2ccc(C(=O)N[C@@H](Cc3ccccc3)C(=O)O)cc2OC(C)C)c(Cl)c1Cl` [Compound 8d], for which the inhibition at 50 µM with E. faecalis ATCC 29212 is greater than 80%. For `Cc1[nH]c(C(=O)Nc2ccc(C(=O)N[C@@H](C)c3n[nH]c(=O)o3)cc2OCCN)c(Cl)c1Cl` [Compound 12, (S)-2-(2-(3,4-Dichloro-5-methyl-1H-pyrrole-2-carboxamido)-5-((1-(5-oxo-4,5-dihydro-1,3,4-oxadiazol-2-yl)ethyl)carbamoyl)phenoxy)ethan-1-aminium chloride], the “growth inhibition of E. faecalis” value with E. faecalis ATCC 29212 (inhibitor concentration 50 μM) is reported as “no growth inhibition”. Further, on E. coli topoisomerase IV, the IC50 was less than 1 µM. On to “4,5-Dibromo-N-(2-isopropoxy-4-((pyridin-2-ylmethyl)carbamoyl)phenyl)-1H-pyrrole-2-carboxamide [Compound 15a]”, for which the “RA (residual activity) E. coli gyrase” value at E. coli DNA gyrase (residual activity of the enzyme at 1 μM of the compound) is listed as 100%. As for `Cc1[nH]c(C(=O)Nc2ccc(C(=O)NCC(=O)O)c(OC(C)C)c2)c(Cl)c1Cl` [Compound 23d], the remaining activity at 1 µM on E. coli topoisomerase IV stood at 100%. With `CC(C)Oc1cc(C(=O)N[C@H](C(=O)O)C(C)C)ccc1NC(=O)c1cc(Br)c(Br)[nH]1` [Compound 8a, (4-(4,5-Dibromo-1H-pyrrole-2-carboxamido)-3-isopropoxybenzoyl)-L-valine], in the test on E. faecalis ATCC 29212, the inhibition at 50 µM is greater than 80%.

On to `Cc1[nH]c(C(=O)Nc2ccc(C(=O)N[C@@H](C)c3n[nH]c(=O)o3)cc2OCCNC(=O)OC(C)(C)C)c(Cl)c1Cl` [Compound 11b], for which the inhibition at 50 µM in the test on E. faecalis ATCC 29212 is greater than 80%. As to `Cc1[nH]c(C(=O)Nc2ccc(C(=O)N[C@@H](C)C(=O)O)cc2OCCNC(=O)OC(C)(C)C)c(Cl)c1Cl` [Compound 8i], at E. coli topoisomerase IV, the remaining activity at 1 µM was found to be 100%. In the case of `Cc1[nH]c(C(=O)Nc2ccc(C(=O)N[C@@H](C)C(=O)NN)cc2OC(C)C)c(Cl)c1Cl` [Compound 10a, (S)-3,4-Dichloro-N-(4-((1-hydrazineyl-1-oxopropan-2-yl)carbamoyl)-2-isopropoxyphenyl)-5-methyl-1H-pyrrole-2-carboxamide], in the test with E. faecalis ATCC 29212, the inhibition at 50 µM was greater than 80%. On E. coli topoisomerase IV, the remaining activity at 1 µM worked out at 100%. On to `Cc1[nH]c(C(=O)Nc2ccc(C(=O)N[C@@H](C)C(=O)O)cc2OC(C)C)c(Cl)c1Cl` [Compound 8e], for which the inhibition at 50 µM in the test with E. faecalis ATCC 29212 is greater than 80%. Moreover, the IC50 on E. coli topoisomerase IV was less than 1 µM. For the compound `COc1cc([C@@H]2c3cc4c(cc3[C@@H](O[C@@H]3O[C@@H]5CO[C@@H](C)O[C@H]5[C@H](O)[C@H]3O)[C@H]3COC(=O)[C@H]23)OCO4)cc(OC)c1O` [Etoposide], the IC50 in the test with HUVEC cells is 1.25 µM; in the test on HepG2 cells it was 30.2 µM. For the compound `NCCOc1cc(C(=O)N[C@@H](Cc2ccccc2)C(=O)O)ccc1NC(=O)c1cc(Br)c(Br)[nH]1` [Compound 9d], in test [1], the inhibition at 50 µM is less than 36%. As to `COC(=O)[C@H](C)NC(=O)c1ccc(NC(=O)c2[nH]c(C)c(Cl)c2Cl)c(OCCN)c1.Cl` [Compound 9b], the inhibition at 50 µM in the test on E. faecalis ATCC 29212 and in the test on S. aureus ATCC 25923 was greater than 80% each time. For the same compound, in the test with E. coli JW5503 ΔtolC, the “growth inhibition of E. coli JW5503 ΔtolC” value was “completely suppressed”. With `O=C(O)CNC(=O)c1ccc(NC(=O)c2cc(Br)c(Br)[nH]2)cc1OCc1ccccc1` [Compound 23a, (2-(Benzyloxy)-4-(4,5-dibromo-1H-pyrrole-2-carboxamido)benzoyl)glycine], at E. coli DNA gyrase (ratio of IC50 values), the “fold more active on E. coli gyrase than isopropoxy analogue 23c” value was 4 fold. The same compound gave an IC50 on E. coli topoisomerase IV of 42 ± 11 µM.

Regarding `CC(C)Oc1cc(NC(=O)c2cc(Br)c(Br)[nH]2)ccc1C(=O)NCC(=O)O` [Compound 23c], at E. coli topoisomerase IV, the remaining activity at 1 µM was determined as 100%.
